Results: the NIST ThermoML archive (doi:10.1021/je060271a)
± gives the expanded uncertainty stated by the source.

Settings: 323.15 K, Liquid, Vibrating tube method

CCCCC(=O)OCC(COC(=O)CCCC)(COC(=O)CCCC)COC(=O)CCCC [pentaerythritol tetrapentanoate]
Settings | mass density [kg/m3]
25366 kPa | 1011.6 ± 1.2
25395 kPa | 1011.5 ± 1.2
25431 kPa | 1011.6 ± 1.2
25460 kPa | 1011.6 ± 1.2
25495 kPa | 1011.6 ± 1.2
25525 kPa | 1011.6 ± 1.2
25555 kPa | 1011.6 ± 1.2
25590 kPa | 1011.6 ± 1.2
25620 kPa | 1011.7 ± 1.2
25651 kPa | 1011.7 ± 1.2
25684 kPa | 1011.7 ± 1.2
25714 kPa | 1011.8 ± 1.2
25750 kPa | 1011.8 ± 1.2
25780 kPa | 1011.9 ± 1.2
25817 kPa | 1011.9 ± 1.2
25847 kPa | 1011.7 ± 1.2
25878 kPa | 1011.8 ± 1.2
25908 kPa | 1012 ± 1.2
25945 kPa | 1011.9 ± 1.2
25976 kPa | 1011.9 ± 1.2
26007 kPa | 1011.9 ± 1.2
26044 kPa | 1011.9 ± 1.2
26076 kPa | 1011.8 ± 1.2
26107 kPa | 1012 ± 1.2
26145 kPa | 1012 ± 1.2
26176 kPa | 1012 ± 1.2
26208 kPa | 1012.1 ± 1.2
26245 kPa | 1012.1 ± 1.2
26277 kPa | 1012 ± 1.2
26308 kPa | 1012.1 ± 1.2
26346 kPa | 1012 ± 1.2
26378 kPa | 1012.2 ± 1.2
26410 kPa | 1012.2 ± 1.2
26448 kPa | 1012.2 ± 1.2
26480 kPa | 1012.3 ± 1.2
26512 kPa | 1012.2 ± 1.2
26551 kPa | 1012.2 ± 1.2
26584 kPa | 1012.3 ± 1.2
26617 kPa | 1012.3 ± 1.2
26656 kPa | 1012.3 ± 1.2
26689 kPa | 1012.2 ± 1.2
26722 kPa | 1012.4 ± 1.2
26754 kPa | 1012.4 ± 1.2
26794 kPa | 1012.3 ± 1.2
26826 kPa | 1012.3 ± 1.2
26860 kPa | 1012.3 ± 1.2
26900 kPa | 1012.5 ± 1.2
26933 kPa | 1012.5 ± 1.2
26967 kPa | 1012.4 ± 1.2
27007 kPa | 1012.6 ± 1.2
27041 kPa | 1012.5 ± 1.2
27075 kPa | 1012.5 ± 1.2
27109 kPa | 1012.6 ± 1.2
27150 kPa | 1012.7 ± 1.2
27183 kPa | 1012.7 ± 1.2
27218 kPa | 1012.7 ± 1.2
27258 kPa | 1012.7 ± 1.2
27292 kPa | 1012.6 ± 1.2
27327 kPa | 1012.6 ± 1.2
27362 kPa | 1012.7 ± 1.2
27404 kPa | 1012.7 ± 1.2
27440 kPa | 1012.7 ± 1.2
27475 kPa | 1012.8 ± 1.2
27510 kPa | 1012.9 ± 1.2
27552 kPa | 1012.9 ± 1.2
27586 kPa | 1012.9 ± 1.2
27628 kPa | 1012.9 ± 1.2
27663 kPa | 1012.9 ± 1.2
27698 kPa | 1012.9 ± 1.2
27733 kPa | 1012.9 ± 1.2
27776 kPa | 1013.1 ± 1.2
27811 kPa | 1013.1 ± 1.2
27847 kPa | 1013 ± 1.2
27890 kPa | 1013.1 ± 1.2
27926 kPa | 1013.1 ± 1.2
27968 kPa | 1013.1 ± 1.2
28005 kPa | 1013.1 ± 1.2
28041 kPa | 1013.1 ± 1.2
28077 kPa | 1013.2 ± 1.2
28122 kPa | 1013.2 ± 1.2
28158 kPa | 1013.1 ± 1.2
28195 kPa | 1013.3 ± 1.2
28238 kPa | 1013.2 ± 1.2
28276 kPa | 1013.3 ± 1.2
28313 kPa | 1013.4 ± 1.2
28357 kPa | 1013.2 ± 1.2
28396 kPa | 1013.3 ± 1.2
28435 kPa | 1013.4 ± 1.2
28472 kPa | 1013.4 ± 1.2
28511 kPa | 1013.4 ± 1.2
28557 kPa | 1013.5 ± 1.2
28595 kPa | 1013.5 ± 1.2
28633 kPa | 1013.5 ± 1.2
28672 kPa | 1013.6 ± 1.2
28719 kPa | 1013.5 ± 1.2
28798 kPa | 1013.6 ± 1.2
28964 kPa | 1013.6 ± 1.2
28998 kPa | 1013.7 ± 1.2
29025 kPa | 1013.8 ± 1.2
29053 kPa | 1013.7 ± 1.2
29087 kPa | 1013.7 ± 1.2
29115 kPa | 1013.8 ± 1.2
29143 kPa | 1013.8 ± 1.2
29325 kPa | 1013.9 ± 1.2
29354 kPa | 1014 ± 1.2
29388 kPa | 1013.9 ± 1.2
29418 kPa | 1014 ± 1.2
29452 kPa | 1014 ± 1.2
29480 kPa | 1013.9 ± 1.2
29509 kPa | 1014.1 ± 1.2
29544 kPa | 1014 ± 1.2
29573 kPa | 1014 ± 1.2
29602 kPa | 1014.1 ± 1.2
29638 kPa | 1014.2 ± 1.2
29667 kPa | 1014.1 ± 1.2
29697 kPa | 1014.1 ± 1.2
29733 kPa | 1014.2 ± 1.2
29762 kPa | 1014.2 ± 1.2
29792 kPa | 1014.2 ± 1.2
29822 kPa | 1014.1 ± 1.2
29857 kPa | 1014.2 ± 1.2
29886 kPa | 1014.2 ± 1.2
29917 kPa | 1014.3 ± 1.2
29952 kPa | 1014.3 ± 1.2
29982 kPa | 1014.4 ± 1.2
30012 kPa | 1014.3 ± 1.2
30049 kPa | 1014.4 ± 1.2
30078 kPa | 1014.4 ± 1.2
30109 kPa | 1014.5 ± 1.2
30146 kPa | 1014.5 ± 1.2
30177 kPa | 1014.4 ± 1.2
30208 kPa | 1014.5 ± 1.2
30238 kPa | 1014.4 ± 1.2
30275 kPa | 1014.4 ± 1.2
30306 kPa | 1014.5 ± 1.2
30342 kPa | 1014.6 ± 1.2
30373 kPa | 1014.5 ± 1.2
30404 kPa | 1014.6 ± 1.2
30435 kPa | 1014.6 ± 1.2
30472 kPa | 1014.7 ± 1.2
30504 kPa | 1014.6 ± 1.2
30535 kPa | 1014.7 ± 1.2
30573 kPa | 1014.7 ± 1.2
30604 kPa | 1014.7 ± 1.2
30641 kPa | 1014.6 ± 1.2
30673 kPa | 1014.7 ± 1.2
30705 kPa | 1014.8 ± 1.2
30742 kPa | 1014.7 ± 1.2
30774 kPa | 1014.9 ± 1.2
30806 kPa | 1014.9 ± 1.2
30838 kPa | 1014.8 ± 1.2
30876 kPa | 1014.9 ± 1.2
30908 kPa | 1014.9 ± 1.2
30947 kPa | 1014.9 ± 1.2
30979 kPa | 1014.9 ± 1.2
31012 kPa | 1014.9 ± 1.2
31051 kPa | 1014.9 ± 1.2
31084 kPa | 1015 ± 1.2
31116 kPa | 1015.1 ± 1.2
31149 kPa | 1015 ± 1.2
